According to patent US6525059B1, “Substituted pyrazoles as p38 kinase inhibitors” (G. D. Searle & Company, priority 1998, dated 2003):
Read-outs that look alike come from different tables or passages of the source.

Key:
TNF-α [1] = test: LPS stimulation of TNF production by U937 cells; type: cell-based, human; conditions: Homo sapiens
Procedure, shortened: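 PMA-differentiated human U937 cells (20 ng/ml PMA, 24 h, then 24-48 h rest) at 2 million cells/ml, 0.1% DMSO final, stimulated with E. coli LPS (100 ng/ml final) for 4 h at 37° C. TNF-α in medium measured by ELISA; IC50 in μM.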

TNF alpha = test: Mouse model of LPS-induced TNF alpha production; type: in vivo
Experimental: TNF alpha was induced in 10-12 week old BALB/c female mice by tail vein injection with 100 ng lipopolysaccharide (from S. Typhosa) in 0.2 ml saline. One hour later mice were bled from the retroorbital sinus and TNF concentrations in serum from clotted blood were quantified by ELISA.
Efficacy was determined at each time point as percent inhibition of serum TNF levels relative to LPS injected mice that received vehicle only
wherein in the dose is milligram per kilogram (mpk) administered by oral gavage and the predose time indicates the number of hours before LPS challenge when the compound is administered.

human p38 kinase alpha = target: T1, human p38 kinase alpha (Homo sapiens, UniProt Q16539); test: p38 kinase in vitro assay, phosphorylation of biotinylated PHAS-I with gamma 32P-ATP; type: biochemical
T1 construct: The coding region of the human p38a cDNA was obtained by PCR-amplification from RNA isolated from the human monocyte cell line THP.1; GST (N); made in house; host or cells: E. coli DH10B
T1 sequence (Q16539 whole entry): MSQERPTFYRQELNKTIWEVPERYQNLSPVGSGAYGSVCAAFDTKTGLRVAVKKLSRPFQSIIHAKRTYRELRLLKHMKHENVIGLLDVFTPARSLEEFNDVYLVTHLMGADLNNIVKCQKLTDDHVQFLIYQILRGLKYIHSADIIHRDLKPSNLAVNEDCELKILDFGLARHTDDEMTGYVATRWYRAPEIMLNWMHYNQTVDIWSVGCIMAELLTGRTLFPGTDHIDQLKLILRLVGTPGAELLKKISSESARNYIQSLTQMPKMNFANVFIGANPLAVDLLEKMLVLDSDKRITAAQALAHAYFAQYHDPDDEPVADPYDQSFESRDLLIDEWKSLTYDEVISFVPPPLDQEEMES
Procedure, shortened: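 MKK6-activated human p38α phosphorylates biotinylated PHAS-I with γ-32P-ATP in 25 mM HEPES pH 7.5, 10 mM Mg acetate, 50 μM unlabeled ATP, 1% DMSO, 30 °C for 1 h or overnight. Compounds at 100–0.001 μM (10-fold steps, triplicate); substrate captured on streptavidin filter plates and counted by scintillation.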

[2] = target: T2, human GST-p38 kinase alpha (Homo sapiens, UniProt Q16539); test: p38 kinase in vitro assay, second format, phosphorylation of EGFRP with 33P-ATP; type: biochemical; conditions: read-out: p38α Kinase Assay IC50
T2 construct: The coding region of the human p38a cDNA was obtained by PCR-amplification from RNA isolated from the human monocyte cell line THP.1; made in house; host or cells: E. coli DH10B
T2 sequence (Q16539 whole entry): as above
Procedure, shortened: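 Activated human GST-p38α (pre-activated with GST-MKK6, 1 h, 30 °C) phosphorylates EGFR 21-mer peptide (200 μM) with 50 μM ATP plus γ-33P-ATP, pH 7.5, 60 min at room temperature. Unreacted ATP removed by AG 1×8 resin; supernatant scintillation-counted.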

TNF-α [3] = test: Rat assay: LPS-challenged rats, serum TNF-α by ELISA; type: in vivo; conditions: Rattus norvegicus, po; for inhibition in vivo at 20 mg/kg: Table 10, dose 20.0 mg/kg; for inhibition in vivo at 1 mg/kg: Table 10, dose 1.0 mg/kg
human TNF = test: TNF inhibition: human whole blood assay; type: cell-based; conditions: Homo sapiens, LPS, read-out: TNF Inhibition-Human Whole Blood Assay
[4] = U-937, LPS-stimulated U937 cells, read-out: U937 IC50
[5] = mouse, oral, 1h before LPS, 30 mpk, read-out: mLPS 1h, 30 mpk percent inhibition
[6] = read-out: P38 alpha kinase IC50
[7] = U-937, TNF production, LPS-stimulated human U937 cells, read-out: U937 Cell IC50
[8] = Mus musculus, 30 mpk oral gavage, -6h before LPS, read-out: Mouse LPS Model % TNF inhib @ dose @ predose time
[9] = p38α in vitro, PHAS-I assay procedure, read-out: p38^1 IC50
[10] = Table 10, dose 5.0 mg/kg, read-out: Rat LPS Assay % Inhibition
[11] = read-out: Rat LPS Assay % Inhibition

| Structure (SMILES) | IC50 ([2]; Table 10, 10% DMSO, @ 1.0 hour) [nM] | inhibition in vivo at 5 mg/kg (TNF-α [3]; [10]) [%] | inhibition in vivo at 20 mg/kg (TNF-α [3]) [%] | IC50 (human TNF; Table 10, human whole blood) [nM] | melting point | other results |
| --- | --- | --- | --- | --- | --- | --- |
| CN(C)CCNc1cc(-c2c[nH]nc2-c2ccc(F)cc2)ccn1 [Example A-264, N′-[4-[3-(4-fluorophenyl)-1H-pyrazol-4-yl]-2-pyridinyl]-N,N-dimethyl-1,2-ethanediamine] | – | – | – | – | – | IC50 (TNF-α [1]; [4]): 259 nM; inhibition in vivo at 30 mg/kg (TNF alpha; [5]): 61% |
| COc1ccc(S(=O)(=O)NCc2[nH]nc(-c3ccc(F)cc3)c2-c2ccncc2)cc1 [Example B-0117] | – | – | – | – | – | IC50 (human p38 kinase alpha; [6]): 460 nM; IC50 (TNF-α [1]; [7]): 1780 nM; inhibition in vivo at 30 mg/kg (TNF alpha; [8]): 30% |
| CC(Oc1ccccc1)C(=O)NCc1[nH]nc(-c2ccc(F)cc2)c1-c1ccncc1 (stereo not drawn) [Example B-0087] | – | – | – | – | – | IC50 (human p38 kinase alpha; [6]): 550 nM; inhibition in vivo at 30 mg/kg (TNF alpha; [8]): 38% |
| OCCn1cc(-c2ccncc2)c(-c2ccc(F)cc2)n1 [Example A-210, 3-(4-fluorophenyl)-4-(4-pyridinyl)-1H-pyrazole-1-ethanol] | – | – | – | – | – | IC50 (human p38 kinase alpha; [9]): 160 nM; IC50 (TNF-α [1]; [4]): 198 nM; inhibition in vivo at 30 mg/kg (TNF alpha; [5]): 93% |
| C[C@@H](NC(=O)c1ccccc1C(F)(F)F)c1[nH]nc(-c2ccc(F)cc2)c1-c1ccncc1 [Example B-0368] | – | – | – | – | – | IC50 (human p38 kinase alpha; [6]): 1000 nM; IC50 (TNF-α [1]; [7]): 640 nM; inhibition in vivo at 30 mg/kg (TNF alpha; [8]): 37% |
| Fc1ccc(-c2n[nH]cc2-c2ccnc(NCCN3CCOCC3)c2)cc1 [Example A-266, N-[4-[3-(4-fluorophenyl)-1H-pyrazol-4-yl)-2-pyridinyl]-4-morpholineethanamine] | – | – | – | – | – | IC50 (TNF-α [1]; [4]): 539 nM; inhibition in vivo at 30 mg/kg (TNF alpha; [5]): 0% |
| Fc1ccc(-c2nn(CCN3CCOCC3)cc2-c2ccnc(F)c2)cc1 [Example A-269, 4-[2-[3-(4-fluorophenyl)-4-(2-fluoro-4-pyridinyl)-1H-pyrazol-1-yl]ethyl]morpholine] | – | – | – | – | – | IC50 (TNF-α [1]; [4]): > 10000 nM; inhibition in vivo at 30 mg/kg (TNF alpha; [5]): 51% |
| CN1CCN(c2n[nH]c(-c3ccc(I)cc3)c2-c2ccncc2)CC1 [Example A-417, 1-[5-(4-iodophenyl)-4-(4-pyridinyl)-1H-pyrazol-3-yl]-4-methylpiperazine] | 190 | 40 | 70 | 12000 | 265.2 to 265.8 °C | – |
| COc1ccc(-c2[nH]nc(N3CCN(C)CC3)c2-c2ccncc2)cc1Cl [Example A-413] | 910 | 45 | 85 | 6510 | 272.7 to 276.4 °C | – |
| Fc1ccc(-c2[nH]ncc2-c2ccnc(Nc3ccccc3F)n2)cc1 [Example A-325, N-(2-fluorophenyl)-4-[3-(4-fluorophenyl)-1H-pyrazol-4-yl]-2-pyrimidinamine] | – | – | – | – | 239 to 240 °C | IC50 ([2]; Table 8, 10% DMSO): < 100 nM; inhibition in vivo at 3 mg/kg (TNF-α [3]; Table 8, dose 3.0 mg/kg, read-out: Rat LPS Assay % Inhibition): 25%; inhibition in vivo at 30 mg/kg (TNF-α [3]; Table 8, dose 30.0 mg/kg): 11%; IC50 (human TNF; Table 8, human whole blood): 57 nM |
| O=C(COc1ccc(Cl)cc1)NCc1[nH]nc(-c2ccc(F)cc2)c1-c1ccncc1 [Example B-0093] | – | – | – | – | – | IC50 (human p38 kinase alpha; [6]): 3180 nM; IC50 (TNF-α [1]; [7]): 1250 nM; inhibition in vivo at 30 mg/kg (TNF alpha; [8]): 30% |
| CN(C)CCn1cc(-c2ccnc(N(C)C)c2)c(-c2ccc(F)cc2)n1 [Example A-273, 4-[1-[2-(dimethylamino)ethyl]-3-(4-fluorophenyl)-1H-pyrazol-4-yl]-N,N-dimethyl-2-pyridinamine] | – | – | – | – | – | IC50 (human p38 kinase alpha; [9]): 6980 nM; IC50 (TNF-α [1]; [4]): > 10000 nM; inhibition in vivo at 30 mg/kg (TNF alpha; [5]): 43% |
| Clc1ccc(-c2n[nH]c(SCC3OCCO3)c2-c2ccncc2)cc1 [Example A-473] | 170 | – | 58 | 560 | 197 to 198.2 °C | – |
| CC(C)(C)OC(=O)N1CCC(Oc2[nH]nc(-c3ccc(Cl)cc3)c2-c2ccncc2)CC1 [Example A-441] | 1210 | 14 | 62 | > 25000 | 230.1 to 231.8 °C | – |
| Cn1cc(-c2ccncc2)c(-c2cccc(F)c2)n1 [Example A-229, 4-[3-(3-fluorophenyl)-1-methyl-1H-pyrazol-4-yl]pyridine] | – | – | – | – | – | IC50 (TNF-α [1]; [4]): 462 nM; inhibition in vivo at 30 mg/kg (TNF alpha; [5]): 91% |
| N#CCSc1[nH]nc(-c2ccc(Cl)cc2)c1-c1ccncc1 [Example A-456] | 120 | 48 | 53 | 980 | 230 to 230.5 °C | inhibition in vivo at 1 mg/kg (TNF-α [3]; [11]): 36% |
| C#CCN1CCN(c2n[nH]c(-c3ccc(Cl)cc3)c2-c2ccncc2)CC1 [Example A-333, 1-[5-(4-chlorophenyl)-4-(4-pyridinyl)-1H-pyrazol-3-yl]-4-(2-propynyl)piperazine] | – | – | – | – | 247 °C (dec.) | IC50 ([2]; Table 8, 10% DMSO): 52 nM; inhibition in vivo at 5 mg/kg (TNF-α [3]; Table 8, dose 5.0 mg/kg, read-out: Rat LPS Assay % Inhibition): 69%; IC50 (human TNF; Table 8, human whole blood): 585 nM |
| Cc1cc(C(=O)C(=C2SCS2)c2ccncc2)ccc1Cl [Example A-391, 1-(4-chloro-3-methylphenyl)-2-1,3-dithietan-2-ylidene-2-pyridin-4-yl-ethanone] | 4830 | – | 53 | > 25000 | 164 to 165 °C | – |
| COc1ccccc1Nc1nccc(-c2cn[nH]c2-c2ccc(F)cc2)n1 [Example A-326, 4-[3-(4-fluorophenyl)-1H-pyrazol-4-yl]-N-(2-methoxyphenyl)-2-pyrimidinamine] | – | – | – | – | 265 °C (dec.) | IC50 ([2]; Table 8, 10% DMSO): 970 nM; inhibition in vivo at 10 mg/kg (TNF-α [3]; Table 8, dose 10.0 mg/kg): 0%; IC50 (human TNF; Table 8, human whole blood): > 25000 nM |
| CN1CCC(Oc2[nH]nc(-c3ccc(Cl)cc3)c2-c2ccncc2)CC1 [Example A-448, 3-(4-chlorophenyl)-5-[(1-methylpiperidin-4-yl)-oxy]-4-pyridin-4-yl-1H-pyrazole] | 84 | 73 | 97 | 120 | 255.9 to 256.8 °C | – |
| Clc1ccc(-c2n[nH]c(SC3CCNCC3)c2-c2ccncc2)cc1 [Example A-459] | 27 | 54 | 80 | 260 | 211.1 to 211.2 °C | inhibition in vivo at 1 mg/kg (TNF-α [3]; [11]): 0% |
| Cc1cc(-c2n[nH]c(N3CCN(C)CC3)c2-c2ccncc2)ccc1Cl [Example A-407, 1-[5-(3-methyl-4-chlorophenyl)-4-(4-pyridinyl)-1H-pyrazol-3-yl]-4-methylpiperazine] | 180 | 21 | 82 | 3860 | 236.7 to 239.3 °C | – |
| CN1CCN(c2[nH]nc(-c3ccc(C(C)(C)C)cc3)c2-c2ccncc2)CC1 [Example A-414, 1-[5-(4-tert-butylphenyl)-4-(4-pyridinyl)-1H-pyrazol-3-yl]-4-methylpiperazine] | 9510 | 3 | 14 | 11200 | 243.6 to 244.3 °C | – |
| CN1CCN(c2[nH]nc(-c3ccc(Br)cc3)c2-c2ccncc2)CC1 [Example A-439] | 150 | 58 | 93 | 5630 | 270.2 to 270.7 °C | – |
| C#CCNC(=O)Cn1nc(-c2ccc(F)cc2)c(-c2ccncc2)c1C [Example B-2310] | – | – | – | – | – | Mouse LPS Model % TNF inhib @ dose @ predose time (TNF alpha; 30 mpk oral gavage): 50% @ 30 mpk @ -6h |
| Cc1ccccc1-c1n[nH]c(N2CCN(C)CC2)c1-c1ccncc1 [Example A-408, 1-[5-(2-tolyl)-4-(4-pyridinyl)-1H-pyrazol-3-yl]-4-methylpiperazine] | 5590 | 20 | 49 | 11700 | 244 to 244.2 °C | – |
